Laboratory results reported in article PMC8536830 (Current Biology, 2021).

Key:
LGC-50 Δ363-397 = target: T1, LGC-50 Δ363-397 (Caenorhabditis elegans, UniProt P41849, DEL363-397); test: Two-electrode voltage clamp, 5-HT evoked dose response, LGC-50 deletion mutant Δ363-397; assay type: cell-based, C. elegans
T1 construct: Plasmid: KSM: lgc-50 (cDNA, Δ363 - 397); expressed in transfected cells; host or cells: Xenopus laevis oocytes injected with cRNA (plasmid pJML138)
Protocol: To identify such domains, we tested the effects of deletion mutations in the LGC-50 M3/4 loop (Figure 5A).
Defolliculated Xenopus laevis oocytes were obtained from EcoCyte Bioscience (Dortmund, Germany) and maintained in ND96 (in mM: 96 NaCl, 1 MgCl2, 5 HEPES, 1.8 CaCl2, 2 KCl) solution at 16°C for 3-5 days.
5'-capped cRNA was synthesized in vitro using the T3 mMessage mMachine transcription kit according to manufacturer’s protocol (Thermo Fischer Scientific, CA, USA). RNA was then purified using the GeneJET RNA purification kit (Thermo Fischer Scientific, CA, USA) prior to cRNA injection. […]
(§1) Two-electrode voltage clamp recordings were carried out using the Robocyte2 recording system or a manual TEVC set up, using an OC-725D amplifier (Multi Channel Systems, Reutlingen, Germany) and paired with a custom-made recording chamber and agar bridges from reference and bath electrodes. […] Data was recorded using WinWCP or RoboCyte2 control software, manual data was filtered at 10 Hz.
(§2) Dose response curves were calculated from the peak current during a 10 s agonist stimulation in ND96 solution, with a 60 s ND96 wash in between doses. […] Normalized dose response data was fitted to a nonlinear curve using a four parameters variable slope and the EC50 and Hill slope was calculated. […] Kinetic measurements were calculated from a 60 s agonist perfusion. […]

[1] = target: T2, LGC-50 S335A, T348A, S353A (Caenorhabditis elegans, UniProt P41849, S335A/S353A/T348A); test: Two-electrode voltage clamp, 5-HT evoked dose response, LGC-50 phospho-dead mutant; assay type: cell-based, C. elegans
T2 construct: Plasmid: KSM: lgc-50 (cDNA, S335A, T348A, S353A); expressed in transfected cells; host or cells: Xenopus laevis oocytes injected with cRNA (plasmid pIH128)
Source text: In addition to this region, we also investigated three upstream predicted phosphorylation sites. Phosphorylation of the M3/4 loop has previously been implicated in the trafficking and cell surface recycling of GABAA receptors.[23]^,[24] The first site in the M3/4 loop of LGC-50, S335, is predicted to be a cdc2 site, and T348 and S353 are predicted protein kinase C (PKC) or PKA sites (Table S2).[25]^,[26] We introduced both phosphorylation-dead alanine mutations and phosphomimic aspartate mutations into these sites to assess their effect on receptor trafficking. […]
as §1, §2

T2 sequence (P41849 20-491 S335A/T348A/S353A): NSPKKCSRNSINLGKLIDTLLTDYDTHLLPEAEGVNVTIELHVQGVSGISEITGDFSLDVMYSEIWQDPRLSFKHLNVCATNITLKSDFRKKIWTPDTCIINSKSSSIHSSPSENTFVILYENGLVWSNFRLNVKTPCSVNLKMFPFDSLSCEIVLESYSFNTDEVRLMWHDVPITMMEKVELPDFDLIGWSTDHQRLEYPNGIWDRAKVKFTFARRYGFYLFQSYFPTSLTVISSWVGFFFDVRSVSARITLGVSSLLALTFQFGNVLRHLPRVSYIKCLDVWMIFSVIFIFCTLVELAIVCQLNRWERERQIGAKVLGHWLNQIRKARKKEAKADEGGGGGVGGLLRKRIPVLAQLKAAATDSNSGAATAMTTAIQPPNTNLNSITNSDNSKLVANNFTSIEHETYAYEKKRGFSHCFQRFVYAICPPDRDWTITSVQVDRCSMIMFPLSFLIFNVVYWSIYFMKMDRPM
T1 sequence (P41849 other isoform, or with tags, fused parts or gaps DEL363-397): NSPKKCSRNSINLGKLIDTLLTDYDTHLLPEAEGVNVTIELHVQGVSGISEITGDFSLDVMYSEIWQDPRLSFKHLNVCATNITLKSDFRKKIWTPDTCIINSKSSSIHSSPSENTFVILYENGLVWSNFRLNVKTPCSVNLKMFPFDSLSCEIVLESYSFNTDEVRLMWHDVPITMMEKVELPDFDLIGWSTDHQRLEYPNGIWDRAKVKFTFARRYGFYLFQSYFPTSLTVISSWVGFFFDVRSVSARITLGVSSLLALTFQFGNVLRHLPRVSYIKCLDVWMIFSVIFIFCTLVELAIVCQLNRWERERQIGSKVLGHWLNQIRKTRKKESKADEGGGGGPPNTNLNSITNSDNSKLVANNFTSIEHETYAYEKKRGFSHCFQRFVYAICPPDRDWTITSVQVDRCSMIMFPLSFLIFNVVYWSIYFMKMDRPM

NCCc1c[nH]c2ccc(O)cc12 [5-HT, serotonin]
EC50 (LGC-50 Δ363-397): 930 nM | EC50 [1]: 570 nM
